In one data set the test system is SH-SY5Y cells. Put plainly: Cytotoxicity by LDH in SH-SY5Y cells. The class given is cell-based. The protocol:
The bimolecular fluorescence was examined 24-hour after transfection (n = 3, one-way ANOVA with Tukey’s post-hoc test, scale bar = 30 μm). (D) Quantification of the concentration (ng/ml) of extracellular αSyn monomer and oligomer, and intracellular αSyn oligomer in Tet-inducible SH-SY5Y cells that were pre-treated with TAT or CS2 peptide 30-minute before adding doxycycline (Dox) to induce αSyn expression. The concentration of αSyn species was determined by ELISA (n = 4, one-way ANOVA with Tukey’s post-hoc test; data are mean ± SEM). (E) Representative images of Mito-SOX staining in SH-SY5Y cells that were pre-treated with TAT or CS2 peptide and transfected with split Venus-αSyn vectors. Mitochondrial ROS production was determined by Mito-SOX staining after 24-hour transfection (n = 4, two-tailed Student’s t test, scale bar = 30 μm).
(G) Quantification of cytotoxicity examined by LDH assay in SH-SY5Y cells treated with indicated peptides (n = 3, one-way ANOVA with Tukey’s post-hoc test, data are mean ± SEM).

A further data set has as its system mThy1-hSNCA mice. Put plainly: Open-field test in mThy1-hSNCA mice. Type of data set: in vivo, mouse. As to conditions: 3 mg/kg/day s.c.; age of 8-month; n = 12-15 mice/group; vs TAT. The protocol:
(§1) C57BL/6 N-Tg (Thy1-SNCA)15Mjff/J (JAX: 017682) breeders (C57Bl/6NJ genetic background) were purchased from Jackson Laboratories. The mice were mated, bred, and genotyped in the animal facility of Case Western Reserve University. All mice were maintained at a 12-hour light/dark cycle (on 6 am, off 6 pm). All randomization and peptide treatments in mThy1-hSNCA mice were prepared by an experimenter not associated with the behavioral and neuropathology analysis. Only male mice were used in the study. mThy1-hSNCA transgenic mice and their age-matched WT littermates were implanted with a 28-day subcutaneous osmotic pump (Alzet, Cupertino CA, Model 2004) containing either TAT control peptide or CS2 peptide, which delivered the peptides at indicated rate (1 or 3 or 10 mg/kg/day). The pump was replaced once every four weeks. All mice were sacrificed at age of 10-month for neuropathology assessment.
The locomotor activity of all experimental mice was assessed in an open field chamber at 8-month-old. Briefly, the mice were placed in the center of an activity chamber (Omnitech Electronics) and allowed to explore the chamber while being tracked using an automated infrared tracking system (Vertax, Omnitech Electronics). A 24-hour locomotor activity analysis was performed. Both horizontal and vertical activity/movements were recorded.

The subject of data set [1] is mThy1-hSNCA mice (substantia nigra / midbrain). As to the kind of experiment: Brain immunostaining / immunohistochemistry in mThy1-hSNCA mice. Type of data set: in vivo, mouse. Particulars: 3 mg/kg/day s.c. The protocol: as §1
For immunofluorescence staining of mouse brain sections, mice were deeply anesthetized and transcardially perfused with 4% paraformaldehyde in PBS. Brain sections were washed in PBS 3 times and subjected for antigen retrieval in 0.01 M sodium citrate buffer with 0.05% TWEEN-20, followed by permeation with 0.2% Triton X-100 in PBS at room temperature for 10 min. Sections were then blocked with 10% normal goat serum in PBS and incubated with primary antibodies overnight at 4 °C and then stained with secondary antibodies. Images of the staining were acquired using Fluoview (FV3000) confocal microscope (Olympus).
Frozen brain sections (20 μm, coronal) were washed in PBS 3 times and subjected for antigen retrieval in 0.01 M sodium citrate buffer with 0.05% TWEEN-20. After washing 3 times in TBS, sections were then incubated in 3%H2O2/w methanol for 30 min at room temperature to quench endogenous peroxidase. After washing in TBS, sections were blocked in 10% normal goat serum with 1XTBST for one hour at room temperature and incubated with anti-pS129-αSyn (ab51253, clone EP1536Y, abcam) or anti- αSyn aggregates (MABN389, clone 5G4, Millipore) antibody in TBST overnight. Secondary antibody and DAB staining were provided by the IHC Select HRP/DAB kit (DAB150, Millipore). Hematoxylin QS (H-3404, Vector laboratory) was used to stain nucleus. The intensity of αSyn was conducted using Fiji ImageJ software. The same image exposure times and threshold settings were used for all sections from all treatment groups. Quantitation was performed blinded to the experimental groups.
Fig. 7 CS2 treatment is protective in mThy1-hSNCA mouse model of PD. (A) Experimental schematic of CS2 treatment in mThy1-hSNCA (Thy1) mouse model of PD: TAT or CS2 peptide was administered (3 mg/kg/day) via subcutaneous osmotic pump (O.P.) in Thy1 mice and their wild-type (WT) littermates starting from age of 4-month till 10-month. […] (D) Representative images of pS129-αSyn staining in substantia nigra of WT and Thy1 mice treated with TAT or CS2 peptide (scale bar = 100 μm). […] (G) Representative images of ClpP and tyrosine […] (TH) staining on the brain coronal sections from TAT or CS2-treated Thy1 mice and their WT littermates (scale bar = 100 μm). […] (H) Representative images of IBA1 and GFAP staining in the midbrain of TAT or CS2 treated Thy1 mice and their WT littermates (SN: substantia nigra) (scale bar = 180 μm).
(B) Representative images of αSyn aggregates staining (5G4) in substantia nigra of TAT or CS2 treated Thy1 mice (scale bar = 40µm).

The mark [2] stands for this setting: midbrain, mThy1-hSNCA, n = 3 mice/group.

From PMC12751141, “Disrupting α-Synuclein–ClpP interaction restores mitochondrial function and attenuates neuropathology in Parkinson’s disease models” (Molecular Neurodegeneration, 2025) come the findings set out here.

As for `CC(C)[C@H](NC(=O)CNC(=O)CNC(=O)CCCCCNC(=O)[C@H](CCCNC(=N)N)NC(=O)[C@H](CCCNC(=N)N)NC(=O)[C@H](CCCNC(=N)N)NC(=O)[C@H](CCC(N)=O)NC(=O)[C@H](CCCNC(=N)N)NC(=O)[C@H](CCCNC(=N)N)NC(=O)[C@H](CCCCN)NC(=O)[C@H](CCCCN)NC(=O)[C@H](CCCNC(=N)N)NC(=O)CNC(=O)[C@@H](N)Cc1ccc(O)cc1)C(=O)N[C@H](C(=O)N[C@H](C(=O)N[C@@H](C)C(=O)O)[C@@H](C)O)C(C)C` [CS2, TAT-C6-GGVVTA], the “cell death, A53T-αSyn” value in the data set with SH-SY5Y cells (SH-SY5Y stably overexpressing A53T-αSyn, 2-day treatment, 12-hour serum starvation, n = 4) was “significantly reduced cell death”. For the same compound, the “cell death, WT-αSyn” value in the data set on SH-SY5Y cells (SH-SY5Y stably overexpressing WT-αSyn, 2-day treatment, 12-hour serum starvation, n = 4) is given as “significantly reduced cell death”. Also, the “cell viability, healthy cells” value with SH-SY5Y cells (healthy SH-SY5Y, 3 days, n = 3) was “did not affect cell viability”. Also, the “locomotor activity, open field” value in the data set with mThy1-hSNCA mice was “ameliorated locomotor activity”. Further, the “ClpP level in midbrain DA neurons” value in data set [1] (TH+ neurons, immunostaining, n = 3 mice/group) was “restored by CS2”. Also, the “IBA1 and GFAP in WT mice” value in data set [1] (WT mice) is “no effect in WT mice”. Besides, in data set [1] (setting [2]), the “GFAP (astrocyte) intensity” value was “significantly attenuated both markers” and the “IBA1 (microglia) intensity” value is on record as “significantly attenuated both markers”. In data set [1] (n = 3 mice/group), the “pS129-αSyn accumulation in SN” value was “reduced by CS2 treatment” and the “αSyn aggregates in SN (5G4)” value is listed as “reduced by CS2 treatment”.
